Assay results reported in patent US20260287577A1, “APPLICATIONS OF HEPATOCYTE CO-CULTURE SYSTEM” (LifeNet Health, priority 2023, published 2026).

How the values were obtained:
Type in all cases: cell-based, human
[1] = system: PHHs cultured in the hTCS; test: Bile canaliculi formation, CDFDA staining; conditions: normal PHHs in hTCS, treated medium with addition of OCA (0.5 μM)
Description: Glucose, Oleic Acid, and OCA Treatment. […] 5-(and-6)-Carboxy-2′, 7′-Dichlorofluorescein Diacetate Staining. To visualize bile canaliculi formation, cells were rinsed twice with 1×DPBS (—Ca^++/—Mg^++) (Thermo Fisher). Fresh medium plus 5 μM 5-(and-6)-Carboxy-2′, 7′-Dichlorofluorescein Diacetate (CDFDA) (Thermo Fisher) were added to the cells and incubated for 20 minutes at 37° C. Cells were then washed twice with 1×DPBS (—Ca^++/—Mg^++), and DMEM (no phenol red) (Gibco) was added to the cells. Images were taken with an EVOS FL cell imaging system (Thermo Fisher) using a 10× objective.

[2] = system: PHHs in the hTCS and DhTCS; test: Nile Red staining of lipid accumulation in PHHs cultured in hTCS/DhTCS; conditions: normal PHHs in hTCS, lipogenic medium plus 0.5 μM OCA
Text: All-Human Triculture System. The hTCS was set up as previously described, including the medias, cell types, and expected functional performance. This protocol follows the guidelines of […] Health's ethics committee. All cells were isolated from donor tissue fully consented for research purposes by […] Health. PHHs have been designated as normal or diseased based on a histopathologic assessment of the tissue of origin by a board-certified pathologist, using the standard MASH CRN Scoring System. Formalin-fixed paraffin-embedded tissue sections were stained with H&E (FIG. 38) and Masson's Trichrome (FIG. 39) and assessed for steatosis, lobular inflammation, and hepatocyte ballooning to form the MAFLD Activity Score (NAS). Fibrosis was scored separately on a 4-point scale according to the classification as described by Kleiner et al (Kleiner et al., 2005). Tissues with a NAS of ≥4 were designated “Diseased” (n=4) while those with NAS of ≤3 were categorized as “Normal” (n=7) (Table 1). Glucose, Oleic Acid, and OCA Treatment. […] Nile Red Staining. Cells were washed with 1×DPBS (-Ca^++/-Mg^++) (Thermo Fisher) three times, and then Nile Red was added at a 1:500 dilution (Abcam). […] Nile Red staining was quantified by determining the densitometric fluorescence value (red channel) using Image J.

[3] = system: PHHs in the hTCS and DhTCS; test: Albumin secretion (ELISA) by PHHs in hTCS/DhTCS; conditions: normal PHHs in hTCS
Description: Albumin and Urea Assays. Supernatant was collected on the indicated days for measurement of albumin and urea. Three wells or greater were designated for each condition. Samples were run in duplicate. The concentration of albumin was determined using an ELISA assay (Abcam, Cambridge, MA) and performed according to the manufacturer's instructions. Urea was measured by a colorimetric kit (Stanbio, Boerne, TX) and performed according to the manufacturer's instructions. Bicinchoninic Acid Assay (BCA). The BCA assay was performed with supernatant collected on the designated day. Three wells or greater were designated for each condition. Samples were run in duplicate. Total protein concentration was determined using a kit (Thermo Fisher, Waltham, MA) and performed according to the manufacturer's instructions. Glucose, Oleic Acid, and OCA Treatment.

SMILES: CC[C@H]1[C@@H](O)[C@@H]2[C@H](CC[C@]3(C)[C@@H]([C@H](C)CCC(=O)O)CC[C@@H]23)[C@@]2(C)CC[C@@H](O)C[C@@H]12 [OCA, 6α-ethyl-chenodeoxycholic acid]
- bile canalicular network formation compared to untreated PHHs [1]: appeared to increase bile canalicular network formation
- Nile Red staining (lipid accumulation) ([2]; day 7): 134.6%±13.6
- Nile Red staining (lipid accumulation) ([2]; day 14, significantly less than treated only, 20160 min): 126.1%±8.5
- albumin, treated plus OCA compared to treated only ([3]; day 1, not significant): An increase in albumin
- albumin secretion ([3]; lipogenic medium plus 0.5 μM OCA, day 7): 13,706±4,738 ng/mg total protein
- albumin levels ([3]; lipogenic medium plus 0.5 μM OCA, day 14): 2,219±400 ng/mg total protein
